Test results reported in patent publication US20250057958A1, “CYTOTOXICITY TARGETING CHIMERAS FOR CCR2-EXPRESSING CELLS” (GLAXOSMITHKLINE INTELLECTUAL PROPERTY DEVELOPMENT LIMITED, priority 2022, published 2025).

Experiments:
[1] = system: CCR2 expressing cells (CD11b+Ly6c+Hi monocytes); test: In vivo depletion assay (flow cytometry of peripheral blood); parameters: species or system human CCR2 (hCCR2) knock-in mice; conditions: IV bolus 0.1 mpk compound + 10 mpk anti-cotinine antibody (mouse IgG2a Fc), 48 hours
Procedure: Human CCR2 (hCCR2) knock-in mice (C57 background) were dosed intravenously with a PBS solution containing a compound of Formula (I) to measure depletion of CCR2 expressing cells in peripheral blood. Peripheral blood from IV dosed mice was also analyzed to determine PK properties of the compounds of Formula (I).
Formulations preparation: On the day of experiment, the stock solution of the compound of Formula (I) was removed from storage at −20° C. and thawed at room temperature. Anti-cotinine antibody having a heavy chain sequence of SEQ ID NO: 13 and a light chain sequence of SEQ ID NO: 14 (rabbit variable region sequence with mouse IgG2a Fc domain), if required was removed from storage at −80° C. and thawed at room temperature. Antibody vials were immediately transferred into wet ice after thawing. Compounds of Formula (I) were further diluted in DMSO as per experimental requirements.
Formulation composition: The formulation composition was Saline: DMSO: PBS. Saline was added based on the quantity required and then stock solution of the compound of Formula (1) prepared in DMSO, followed by addition of antibody in PBS. Formulations were incubated at room temperature for 30 minutes before administration to the mouse. DMSO was used at 1 to 2% (v/v) in the final formulation.
Administration to Animal: Solution formulation of antibody and compound of Formula (I) was injected (bolus injection) to the restrained mouse in the right/left lateral tail vein. Animals were dosed with 0.1 milligram per kilogram (mpk) of the compound of Formula (I) and 10 mpk of the anti-cotinine antibody.
Terminal bleeding at end of experiment (48 hr): Approximately 250 μL of blood in K2EDTA tube and approximately 250 μL of blood in SST (serum separation tube) was collected from each mouse through retro-orbital bleeding under deep isoflurane anesthesia. After bleeding, each mouse was sacrificed by cervical dislocation. The blood distribution at termination was determined as follows: • For PK: 50 μL of K2EDTA blood was transferred to another tube for PK • Flow cytometry: Remaining blood (˜200 μL) was used for flow cytometry analysis. • For serum collection: serum separator tubes (BD) were centrifuged at 4° C., 5000 rpm for 15 minutes. Approximately 100 μL serum was separated and stored at −80° C. for further usage. • Blood drug concentration: Samples collected at the various timepoints (0.25 hr, 2 hr, 24 and 48 hr) were analyzed to determine blood drug concentration.
Flow cytometry analysis: CCR2 depletion in peripheral blood was determined by flow cytometry. Briefly, peripheral blood was collected from all animals at the end of study termination and processed. […]
Percent depletion of CD11b+Ly6c+Hi cells and CCR2 expression for the different treatment groups was determined. […]

[2] = target: T1, CHOK1 cells engineered to overexpress human CCR2 (Homo sapiens, UniProt P41597); test: Antibody dependent cellular cytotoxicity (ADCC) reporter assay; type: cell-based; conditions: with anti-cotinine antibody (SEQ ID NO: 11/12, human IgG1 Fc S239D/I332E); Jurkat FcγRIIIa NFAT-luciferase reporter cells; 12-18 hours; average if more than one run; read-out: ADCC Reporter Assay pEC50 (converted)
T1 construct: expressed in transfected cells; host or cells: CHOK1 cells
Procedure: An antibody dependent cellular cytoxocity reporter assay was conducted using the following four assay components: (i) ARM compound of Formula (I) targeting CCR2 (concentrations ranging from 1 pM to 10 μM) (ii) anti-cotinine antibody having a heavy chain sequence of SEQ ID NO: 11 and a light chain sequence of SEQ ID NO: 12 (rabbit variable region with human IgG1 Fc domain containing a DE mutation (S239D/I332E)) (concentrations ranging from 0.01 μg/mL to 200 μg/mL); (iii) target cells: CHOK1 cells engineered to overexpress either human CCR2 (typically 1000-20,000 cells perwell) and (iv) reporter cells: Jurkat cells engineered to express FcγRIIIa with the reporter gene luciferase under the control of the NFAT promoter (typically 3000-75,000 cells per well). Reagents were combined in a final volume of 20 μL in a 384—well tissue culture treated plate. All four assay components were incubated together for about 12-18 hours. Thereafter, BioGlo Detection reagent (Promega) was added to the wells to lyse the cells and provide a substrate for the luciferase reporter protein. Luminescence signal was measured on a microplate reader and signal:background was calculated by dividing the signal of a test well by the signal obtained when no ARM compound of Formula (I) was added. EC50 calculations were done using Graphpad Prism Software, specifically a nonlinear regression curve fit (Y=Bottom+(Top−Bottom)/(1+10 ^((Log EC50−X)*HillSlope))).
ARMs compounds of Formula (I) of the invention were tested for ADCC activity in the above assay in or more experimental runs and the results are shown in Table 3 below. Potency of the compounds of Formula (I) of the invention is reported as a pEC50 value. The pEC50 value is the negative log of the EC50 value, wherein the EC50 value is the half maximal effective concentration measured in molar (M). For compounds tested in more than one experimental run, the pEC50 value is reported as an average.

| Compound | % Depletion of CCR2 expressing cells [1] [%] | EC50 [2] [nM] |
| --- | --- | --- |
| CC(=O)N[C@@H]1C[C@H](NC(C)(C)C)CC[C@@H]1N1CC[C@H](Nc2nc(CCCCNC(=O)[C@H]3CC[C@H](NC(=O)CCCO[C@H]4CC[C@H](OCCNC(=O)[C@H]5CC(=O)N(C)[C@@H]5c5cccnc5)CC4)CC3)nc3ccc(C(F)(F)F)cc23)C1=O [Example 3, (2S,3S)-N-(2-(((1R,4S)-4-(4-(((1S,4R)-4-((4-(4-(((S)-1-((1S,2R,4R)-2-Acetamido-4-(tert-butylamino)cyclohexyl)-2-oxopyrrolidin-3-yl)amino)-6-(trifluoromethyl)quinazolin-2-yl)butyl)carbamoyl)cyclohexyl)amino)-4-oxobutoxy)cyclohexyl)oxy)ethyl)-1-methyl-5-oxo-2-(pyridin-3-yl)pyrrolidine-3-carboxamide] | 84 | 0.158 |
| CC(=O)N[C@@H]1C[C@H](NC(C)(C)C)CC[C@@H]1N1CC[C@H](Nc2nc([C@H]3CC[C@@H](NC(=O)[C@H]4CC[C@H](NC(=O)CCCO[C@H]5CC[C@H](OCCNC(=O)[C@H]6CC(=O)N(C)[C@@H]6c6cccnc6)CC5)CC4)CC3)nc3ccc(C(F)(F)F)cc23)C1=O [Example 10, (2S,3S)-N-(2-(((1R,4S)-4-(4-(((1R,4R)-4-(((1R,4S)-4-(4-(((S)-1-((1S,2R,4R)-2-Acetamido-4-(tert-butylamino)cyclohexyl)-2-oxopyrrolidin-3-yl)amino)-6-(trifluoromethyl)quinazolin-2-yl)cyclohexyl)carbamoyl)cyclohexyl)amino)-4-oxobutoxy)cyclohexyl)oxy)ethyl)-1-methyl-5-oxo-2-(pyridin-3-yl)pyrrolidine-3-carboxamide] | 89.71 | 0.251 |
| CC(=O)N[C@@H]1C[C@H](NC(C)(C)C)CC[C@@H]1N1CC[C@H](Nc2nc([C@H]3CC[C@H](NC(=O)[C@H]4CC[C@H](NC(=O)CCCO[C@H]5CC[C@H](OCCNC(=O)[C@H]6CC(=O)N(C)[C@@H]6c6cccnc6)CC5)CC4)CC3)nc3ccc(C(F)(F)F)cc23)C1=O [Example 11, (2S,3S)-N-(2-(((1R,4S)-4-(4-(((1S,4R)-4-(((1S,4R)-4-(4-(((S)-1-((1S,2R,4R)-2-Acetamido-4-(tert-butylamino)cyclohexyl)-2-oxopyrrolidin-3-yl)amino)-6-(trifluoromethyl)quinazolin-2-yl)cyclohexyl)carbamoyl)cyclohexyl)amino)-4-oxobutoxy)cyclohexyl)oxy)ethyl)-1-methyl-5-oxo-2-(pyridin-3-yl)pyrrolidine-3-carboxamide] | 95.41 | 0.158 |
